Laboratory results from US10899766B2, “Bridged piperidine derivatives” (Hoffmann-La Roche Inc., priority 2016, dated 2021).

test system: γ-secretase; experiment: Cellular γ-secretase assay (inhibition of Aβ42 secretion, AlphaLisa); format: cell-based; details: Human neuroglioma H4 cells overexpressing human APP695 Swedish double mutation; 24 hr compound incubation; secreted Aβ42 in supernatant
Experimental: Cellular γ-Secretase Assay
Human neuroglioma H4 cells overexpressing human APP695 with the Swedish double mutation (K595N/M596L) were plated at 30,000 cells/well/100 μl in 96-well plates in IMDM media containing 10% FCS, 0.2 mg/l Hygromycin B and incubated at 37° C., 5% CO2.
3-4 hr post plating, compounds are a diluted in media and 50 μl is added as 1.5-fold concentrate to achieve the final concentration. Compound incubation is performed for 24 hr. Final doses typically range from 4 μM down to 0.0013 μM in half-log steps resulting in a eight point dose response curve.
Appropriate controls using vehicle only and reference compound were applied to this assay. The final concentration of Me2SO was 0.4%.
After incubation at 37° C., 5% CO2, the supernatant was subjected to quantification of secreted Aβ42 by the means of an AlphaLisa assay kit (Human Amyloid beta 1-42 Kit: Cat # AL203C, Perkin Elmer). 20 μl of the cell culture supernatant was transferred to an assay plate. Then 10 μl of a mixture of the AlphaLisa coupled capture antibody and the biotinylated detection antibody was added and incubated for 3 hours at room temperature while softly shaking the assay plate. After a further addition of 20 μl of the Donor beads the assay plate was incubated for 30 min at room temperature and constant shaking without exposure to direct light.
The assay plate was then read on a Paradigm AlphaLisa Reader using the build-in program with excitation at 680 nm and emission at […].
The measured signals were then used to calculate IC50 values for inhibition of Aβ42 secretion by nonlinear regression fit analysis using XLfit 5.3 software (IDBS).

Going from `Cc1cc(N2C[C@H]3CC[C@@H](C2)[C@@H]3Nc2nc3n(n2)CCCN3c2ccc(C)c(F)c2)ncn1` [Example 11, 4-(3-fluoro-4-methyl-phenyl)-N-[(1R,5S,8S)-3-(6-methylpyrimidin-4-yl)-3-azabicyclo[3.2.1]octan-8-yl]-6,7-dihydro-5H-[1,2,4]triazolo[1,5-a]pyrimidin-2-amine] to `Cc1ccc(N2CCCn3nc(N[C@@H]4[C@@H]5CC[C@H]4CN(c4cc(Cl)ncn4)C5)nc32)cc1F` [Example 13, N-[(1R,5S,8S)-3-(6-chloropyrimidin-4-yl)-3-azabicyclo[3.2.1]octan-8-yl]-4-(3-fluoro-4-methyl-phenyl)-6,7-dihydro-5H-[1,2,4]triazolo[1,5-a]pyrimidin-2-amine], the EC50 falls from 27.8 nM to 11.4 nM (2.4-fold). The second is the more potent here.

`Cc1cc(N2C[C@H]3CC[C@@H](C2)[C@@H]3Nc2nc3n(n2)CCN3c2ccc(C(F)(F)F)cc2)ncn1` [Example 12, N-[(1R,5S,8S)-3-(6-methylpyrimidin-4-yl)-3-azabicyclo[3.2.1]octan-8-yl]-4-[4-(trifluoromethyl)phenyl]-5,6-dihydroimidazo[1,2-b][1,2,4]triazol-2-amine] and `Cc1cc(N2C[C@H]3CC[C@@H](C2)[C@@H]3Nc2nc3n(n2)CCCCN3c2ccc(F)c(F)c2)ncn1` [Example 23, 4-(3,4-difluorophenyl)-N-[(1R,5S,8S)-3-(6-methylpyrimidin-4-yl)-3-azabicyclo[3.2.1]octan-8-yl]-5,6,7,8-tetrahydro-[1,2,4]triazolo[1,5-a][1,3]diazepin-2-amine] are within 1.5-fold of each other in EC50: 26.8 nM for the first, 23.3 nM for the second.

Compared with `COc1cc(N2C[C@H]3CC[C@@H](C2)[C@@H]3Nc2nc3n(n2)CCCN3c2ccc(F)c(F)c2)ncn1` [Example 14, 4-(3,4-difluorophenyl)-N-[(1R,5S,8S)-3-(6-methoxypyrimidin-4-yl)-3-azabicyclo[3.2.1]octan-8-yl]-6,7-dihydro-5H-[1,2,4]triazolo[1,5-a]pyrimidin-2-amine], `COc1cc(N2C[C@H]3CC[C@@H](C2)[C@@H]3Nc2nc3n(n2)CCCCN3c2ccc(F)c(F)c2)ncn1` [Example 24, 4-(3,4-difluorophenyl)-N-[(1R,5S,8S)-3-(6-methoxypyrimidin-4-yl)-3-azabicyclo[3.2.1]octan-8-yl]-5,6,7,8-tetrahydro-[1,2,4]triazolo[1,5-a][1,3]diazepin-2-amine] is 5.2-fold higher in EC50: 15.5 nM for the first, 80.4 nM for the second. The first is the more potent here.

`Cc1noc(N2C[C@H]3CC[C@@H](C2)[C@@H]3Nc2nc3n(n2)CCCN3c2ccc(F)c(F)c2)n1` [Example 15, 4-(3,4-difluorophenyl)-N-[(1R,5S,8S)-3-(3-methyl-1,2,4-oxadiazol-5-yl)-3-azabicyclo[3.2.1]octan-8-yl]-6,7-dihydro-5H-[1,2,4]triazolo[1,5-a]pyrimidin-2-amine] and `Cc1cc(N2C[C@H]3CC[C@@H](C2)[C@@H]3Nc2nc3n(n2)CCCN3c2ccc(F)c(F)c2)cnn1` [Example 20, 4-(3,4-difluorophenyl)-N-[(1R,5S,8S)-3-(6-methylpyridazin-4-yl)-3-azabicyclo[3.2.1]octan-8-yl]-6,7-dihydro-5H-[1,2,4]triazolo[1,5-a]pyrimidin-2-amine] are within 1.5-fold of each other in EC50: 30.6 nM for the first, 23.1 nM for the second.

`Fc1ccc(N2CCCn3nc(N[C@@H]4[C@@H]5CC[C@H]4CN(c4cnnc(Cl)c4)C5)nc32)cc1F` [Example 16, N-[(1R,5S,8S)-3-(6-chloropyridazin-4-yl)-3-azabicyclo[3.2.1]octan-8-yl]-4-(3,4-difluorophenyl)-6,7-dihydro-5H-[1,2,4]triazolo[1,5-a]pyrimidin-2-amine] and `Fc1ccc(N2CCCCn3nc(N[C@@H]4[C@@H]5CC[C@H]4CN(c4cnnc(Cl)c4)C5)nc32)cc1F` [Example 25, N-[(1R,5S,8S)-3-(6-chloropyridazin-4-yl)-3-azabicyclo[3.2.1]octan-8-yl]-4-(3,4-difluorophenyl)-5,6,7,8-tetrahydro-[1,2,4]triazolo[1,5-a][1,3]diazepin-2-amine] are within 1.5-fold of each other in EC50: 17.2 nM for the first, 23.4 nM for the second.

Compared with `Fc1ccc(N2CCCn3nc(N[C@@H]4[C@@H]5CC[C@H]4CN(c4cc(Cl)ncn4)C5)nc32)cc1F` [Example 17, N-[(1R,5S,8S)-3-(6-chloropyrimidin-4-yl)-3-azabicyclo[3.2.1]octan-8-yl]-4-(3,4-difluorophenyl)-6,7-dihydro-5H-[1,2,4]triazolo[1,5-a]pyrimidin-2-amine], `COc1cc(N2C[C@H]3CC[C@@H](C2)[C@@H]3Nc2nc3n(n2)CCCN3c2ccc(F)c(F)c2)cnn1` [Example 18, 4-(3,4-difluorophenyl)-N-[(1R,5S,8S)-3-(6-methoxypyridazin-4-yl)-3-azabicyclo[3.2.1]octan-8-yl]-6,7-dihydro-5H-[1,2,4]triazolo[1,5-a]pyrimidin-2-amine] is 2.2-fold lower in EC50: 58 nM for the first, 26.4 nM for the second.

`Cc1ncnc(N2C[C@H]3CC[C@@H](C2)[C@@H]3Nc2nc3n(n2)CCCN3c2ccc(F)c(F)c2)c1F` [Example 19, 4-(3,4-difluorophenyl)-N-[(1R,5S,8S)-3-(5-fluoro-6-methyl-pyrimidin-4-yl)-3-azabicyclo[3.2.1]octan-8-yl]-6,7-dihydro-5H-[1,2,4]triazolo[1,5-a]pyrimidin-2-amine] and `COc1cc(N2C[C@H]3CC[C@@H](C2)[C@@H]3Nc2nc3n(n2)CCCN3c2ccc(F)c(F)c2)ccn1` [Example 21, 4-(3,4-difluorophenyl)-N-[(1R,5S,8S)-3-(2-methoxy-4-pyridyl)-3-azabicyclo[3.2.1]octan-8-yl]-6,7-dihydro-5H-[1,2,4]triazolo[1,5-a]pyrimidin-2-amine] are within 1.5-fold of each other in EC50: 13.9 nM for the first, 14.7 nM for the second.

For `Fc1ccc(N2CCCCn3nc(N[C@@H]4[C@@H]5CC[C@H]4CN(c4ccnc(C(F)(F)F)c4)C5)nc32)cc1F` [Example 22, 4-(3,4-difluorophenyl)-N-[(1R,5S,8S)-3-[2-(trifluoromethyl)-4-pyridyl]-3-azabicyclo[3.2.1]octan-8-yl]-5,6,7,8-tetrahydro-[1,2,4]triazolo[1,5-a][1,3]diazepin-2-amine], the EC50 was 34.8 nM.
